In patent US10017514B2, “6,7-dihydropyrazolo[1,5-α]pyrazin-4(5H)-one compounds and their use as negative allosteric modulators of mGluR2 receptors” (Janssen Pharmaceutica NV, priority 2014, dated 2018):

Columns and labels:
human mGlu2 receptor = molecular target: T1, human mGlu2 receptor (Homo sapiens, UniProt Q14416); assay: [35S]GTPγS binding assay, mGluR2 negative allosteric modulation; type: biochemical; settings: for Emax: maximal % inhibition relative to the control glutamate response (EC80 glutamate), read-out: GTPγS-hmGluR2 anGT Emax; for IC50: membranes from CHO cells transfected with human mGlu2 receptor, glutamate ~EC80 (60 μM), read-out: GTPγS-hmGluR2 anGT pIC50 (converted)
T1 construct: expressed in transfected cells; host or cells: CHO cells (membrane preparation)
T1 sequence (Q14416 19-872): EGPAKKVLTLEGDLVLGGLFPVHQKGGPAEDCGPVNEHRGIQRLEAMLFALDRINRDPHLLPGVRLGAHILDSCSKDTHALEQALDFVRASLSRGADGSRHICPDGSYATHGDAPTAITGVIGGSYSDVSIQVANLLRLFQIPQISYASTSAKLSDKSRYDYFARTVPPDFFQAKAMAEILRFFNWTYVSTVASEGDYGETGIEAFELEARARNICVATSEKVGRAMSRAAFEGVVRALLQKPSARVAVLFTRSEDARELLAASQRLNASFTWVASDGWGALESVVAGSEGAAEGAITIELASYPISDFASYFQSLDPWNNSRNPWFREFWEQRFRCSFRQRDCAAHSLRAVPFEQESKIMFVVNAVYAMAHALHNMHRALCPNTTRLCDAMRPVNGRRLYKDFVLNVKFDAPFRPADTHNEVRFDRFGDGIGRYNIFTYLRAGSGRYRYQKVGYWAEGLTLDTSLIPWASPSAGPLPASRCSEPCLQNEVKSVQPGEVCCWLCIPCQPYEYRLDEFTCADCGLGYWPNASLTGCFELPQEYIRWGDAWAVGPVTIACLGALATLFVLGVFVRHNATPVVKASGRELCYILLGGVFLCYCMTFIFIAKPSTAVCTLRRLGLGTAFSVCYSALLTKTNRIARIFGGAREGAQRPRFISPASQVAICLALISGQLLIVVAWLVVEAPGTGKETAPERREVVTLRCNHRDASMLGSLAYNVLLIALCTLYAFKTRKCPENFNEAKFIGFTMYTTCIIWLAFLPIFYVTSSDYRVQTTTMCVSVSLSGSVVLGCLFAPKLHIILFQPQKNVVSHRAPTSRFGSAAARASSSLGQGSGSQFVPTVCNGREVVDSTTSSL
Description: Total reaction volume was 200 μl. […] Membrane-bound radioactivity was counted in a Topcount.

rats = assay: Reversal of the effect of the mGluR2 PAM JNJ-42153605-induced inhibition of scopolamine-induced hyperlocomotion; type: in vivo, rat; settings: for ED50: Rattus norvegicus, rats, PO, 60 min pretreatment, JNJ-42153605 20 mg/kg i.v. + scopolamine 0.16 mg/kg i.v., criterion total distance >1500 cm in 30 min, read-out: SCOP JNJ-42153605 ED50
Description: Motor activity was measured in microprocessor-based motor activity arenas (closed gray PVC cylinders with a height of 39 cm and a diameter of 31 cm). Each arena was placed on an infrared LED (8×8 LEDs) lit box (white PVC squared box; 40×40 cm^2; height 12.5 cm. An infrared-sensitive tube camera and a white light source were mounted to the ceiling above the observation chamber to track the animal. […] Noldus, Wageningen, The Netherlands). The intensity of the light within the activity cages (measured in the centre at the level of the floor) ranged between 4 and 8 LUX. The rats were pretreated with test compound or vehicle at 60 min before the start of the activity recordings and placed into individual cages. […] WO2010/130424; Cid et al. J. Med.

[1] = historical series of solvent-pretreated control rats, first 30 min

Compound | Emax (human mGlu2 receptor) | IC50 (human mGlu2 receptor) | melting point | ED50 (rats) | Median total distance travelled (rats; [1]) | rats travelling >1500 cm (rats; [1]) | rats travelling >4400 cm (rats; [1])
Cc1cc(-c2cnn3c2C(=O)N(c2ccc(C(F)(F)F)cc2)C[C@@H]3C)no1 [Co. No. 1, (7S)-7-Methyl-3-(5-methylisoxazol-3-yl)-5-[4-(trifluoromethyl)phenyl]-6,7-dihydropyrazolo[1,5-a]pyrazin-4-one] | 103% | 69.2 nM | 165.04 °C | – | – | – | –
C[C@H]1CN(c2ccc(C(F)(F)F)cc2)C(=O)c2c(-c3cc(-c4ccc(N)nc4)on3)cnn21 [Co. No. 2, (7S)-3-[5-(6-Amino-3-pyridyl)isoxazol-3-yl]-7-methyl-5-[4-(trifluoromethyl)phenyl]-6,7-dihydropyrazolo[1,5-a]pyrazin-4-one] | 103% | 2.04 nM | 233.79 °C | 0.5 mg/kg | – | – | –
C[C@H]1CN(c2ccc(C(F)(F)F)cc2)C(=O)c2c(-c3cc(-c4ccccc4)on3)cnn21 [Co. No. 3, (7S)-7-methyl-3-(5-phenylisoxazol-3-yl)-5-[4-(trifluoromethyl)phenyl]-6,7-dihydropyrazolo[1,5-a]pyrazin-4-one] | 103% | 9.12 nM | 194.25 °C | – | – | – | –
C[C@H]1CN(c2ccc(C(F)(F)F)cc2)C(=O)c2c(-c3cc(-c4ccccn4)on3)cnn21 [Co. No. 4, (7S)-7-methyl-3-[5-(2-pyridyl)isoxazol-3-yl]-5-[4-(trifluoromethyl)phenyl]-6,7-dihydropyrazolo[1,5-a]pyrazin-4-one] | 106% | 40.7 nM | 193.65 °C | – | – | – | –
C[C@H]1CN(c2ccc(C(F)(F)F)cc2)C(=O)c2c(-c3cc(-c4cccnc4)on3)cnn21 [Co. No. 5, (7S)-7-methyl-3-[5-(3-pyridyl)isoxazol-3-yl]-5-[4-(trifluoromethyl)phenyl]-6,7-dihydropyrazolo[1,5-a]pyrazin-4-one] | 106% | 11.2 nM | 215.1 °C | 0.51 mg/kg | – | – | –
Cc1cc(-c2cc(-c3cnn4c3C(=O)N(c3ccc(C(F)(F)F)cc3)C[C@@H]4C)no2)ccn1 [Co. No. 6, (7S)-7-methyl-3-[5-(2-methyl-4-pyridyl)isoxazol-3-yl]-5-[4-(trifluoromethyl)phenyl]-6,7-dihydropyrazolo[1,5-a]pyrazin-4-one] | 114% | 40.7 nM | 118.52 °C | – | – | – | –
Cc1cncc(-c2cc(-c3cnn4c3C(=O)N(c3ccc(C(F)(F)F)cc3)C[C@@H]4C)no2)c1 [Co. No. 7, (7S)-7-methyl-3-[5-(5-methyl-3-pyridyl)isoxazol-3-yl]-5-[4-(trifluoromethyl)phenyl]-6,7-dihydropyrazolo[1,5-a]pyrazin-4-one] | 106% | 27.5 nM | 208.95 °C | – | – | – | –
Cc1cc(-c2cnn3c2C(=O)N(c2ccc(C(F)(F)F)c(Cl)c2)C[C@@H]3C)no1 [Co. No. 8, (7S)-5-[3-chloro-4-(trifluoromethyl)phenyl]-7-methyl-3-(5-methylisoxazol-3-yl)-6,7-dihydropyrazolo[1,5-a]pyrazin-4-one] | 110% | 16.2 nM | – | – | – | – | –
C[C@H]1CN(c2ccc(C(F)(F)F)c(Cl)c2)C(=O)c2c(-c3cc(-c4ccc(N)nc4)on3)cnn21 [Co. No. 9, (7S)-3-[5-(6-amino-3-pyridyl)isoxazol-3-yl]-5-[3-chloro-4-(trifluoromethyl)phenyl]-7-methyl-6,7-dihydropyrazolo[1,5-a]pyrazin-4-one] | 113% | 1.15 nM | – | – | – | – | –
C[C@H]1CN(c2ccc(C(F)(F)F)c(Cl)c2)C(=O)c2c(-c3cc(-c4cnccn4)on3)cnn21 [Co. No. 13, (7S)-5-[3-chloro-4-(trifluoromethyl)phenyl]-7-methyl-3-(5-pyrazin-2-ylisoxazol-3-yl)-6,7-dihydropyrazolo[1,5-a]pyrazin-4-one] | 106% | 6.03 nM | 205.91 °C | – | – | – | –
CN1[C@@H]2C[C@@H](OC(=O)[C@H](CO)c3ccccc3)C[C@H]1[C@@H]1O[C@@H]12 [Scopolamine, scopolamine, reference compound] | – | – | – | – | 7246 cm | 100% | 95.8%

Second part, led by results:

Emax (human mGlu2 receptor) | IC50 (human mGlu2 receptor) | melting point | Compound | ED50 (rats) | Median total distance travelled (rats; [1]) | rats travelling >1500 cm (rats; [1]) | rats travelling >4400 cm (rats; [1])
107% | 14.8 nM | 155.07 °C | Cc1cc(N2C[C@H](C)n3ncc(-c4cc(-c5ccccn5)on4)c3C2=O)ccc1C(F)(F)F [Co. No. 14, (7S)-7-methyl-5-[3-methyl-4-(trifluoromethyl)phenyl]-3-[5-(2-pyridyl)isoxazol-3-yl]-6,7-dihydropyrazolo[1,5-a]pyrazin-4-one] | – | – | – | –
110% | 21.4 nM | 172.9 °C | Cc1cncc(-c2cc(-c3cnn4c3C(=O)N(c3ccc(C(F)(F)F)c(C)c3)C[C@@H]4C)no2)c1 [Co. No. 16, (7S)-7-methyl-3-[5-(5-methyl-3-pyridyl)isoxazol-3-yl]-5-[3-methyl-4-(trifluoromethyl)phenyl]-6,7-dihydropyrazolo[1,5-a]pyrazin-4-one] | – | – | – | –
106% | 17.4 nM | 181.57 °C | Cc1cc(N2C[C@H](C)n3ncc(-c4cc(-c5cnccn5)on4)c3C2=O)ccc1C(F)(F)F [Co. No. 17, (7S)-7-methyl-5-[3-methyl-4-(trifluoromethyl)phenyl]-3-(5-pyrazin-2-ylisoxazol-3-yl)-6,7-dihydropyrazolo[1,5-a]pyrazin-4-one] | – | – | – | –
101% | 18.6 nM | 176.27 °C | C[C@H]1CN(c2ccc(C(F)(F)F)cc2)C(=O)c2c(-c3cc(-c4cncc(F)c4)on3)cnn21 [Co. No. 19, (7S)-3-[5-(5-fluoro-3-pyridyl)isoxazol-3-yl]-7-methyl-5-[4-(trifluoromethyl)phenyl]-6,7-dihydropyrazolo[1,5-a]pyrazin-4-one] | – | – | – | –
105% | 20.9 nM | 168.93 °C | Cc1cc(N2C[C@H](C)n3ncc(-c4cc(-c5cncc(F)c5)on4)c3C2=O)ccc1C(F)(F)F [Co. No. 23, (7S)-3-[5-(5-fluoro-3-pyridyl)isoxazol-3-yl]-7-methyl-5-[3-methyl-4-(trifluoromethyl)phenyl]-6,7-dihydropyrazolo[1,5-a]pyrazin-4-one] | – | – | – | –
106% | 6.03 nM | 189.85 °C | C[C@H]1CN(c2ccc(C(F)(F)F)cc2)C(=O)c2c(-c3cc(-c4cccnc4N)on3)cnn21 [Co. No. 24, (7S)-3-[5-(2-amino-3-pyridyl)isoxazol-3-yl]-7-methyl-5-[4-(trifluoromethyl)phenyl]-6,7-dihydropyrazolo[1,5-a]pyrazin-4-one] | – | – | – | –
110% | 25.1 nM | 208.39 °C | CNc1cc(-c2cc(-c3cnn4c3C(=O)N(c3ccc(C(F)(F)F)cc3)C[C@@H]4C)no2)ccn1 [Co. No. 25, (7S)-7-methyl-3-[5-[2-(methylamino)-4-pyridyl]isoxazol-3-yl]-5-[4-(trifluoromethyl)phenyl]-6,7-dihydropyrazolo[1,5-a]pyrazin-4-one] | – | – | – | –
112% | 6.17 nM | 173.7 °C | CNc1ccc(-c2cc(-c3cnn4c3C(=O)N(c3ccc(C(F)(F)F)cc3)C[C@@H]4C)no2)cn1 [Co. No. 26, (7S)-7-methyl-3-[5-[6-(methylamino)-3-pyridyl]isoxazol-3-yl]-5-[4-(trifluoromethyl)phenyl]-6,7-dihydropyrazolo[1,5-a]pyrazin-4-one] | – | – | – | –
